Experimental data published in patent US20200288711A1, “Pyrimidin-4-Carbamate or Urea Derivatives As Herbicides” (Syngenta Participations AG, priority 2017, published 2020).

These compounds were tested on Setaria faberi (SETFA) (assay: B1 pre-emergence herbicidal activity). Settings: Test 1a, rate 1000 g/ha, evaluated after 13 days, score 0-5 (5=total damage, 0=no damage).
Assay type: in vivo
Set-up: key to Pre-emergence herbicidal activity, SETFA: 5=total damage to plant; 0=no damage to plant
Description: (§1) Seeds of a variety of test species were sown in standard soil in pots: Triticum aestivium (TRZAW), Avena fatua (AVEFA), Alopecurus myosuroides (ALOMY), Echinochloa crus-galli (ECHCG), Lolium perenne (LOLPE), Zea mays (ZEAMX), Abutilon theophrasti (ABUTH), Amaranthus retroflexus (AMARE) and Setaria faberi (SETFA). After cultivation for one day (pre-emergence) under controlled conditions in a glasshouse (at 24/16° C., day/night; 14 hours light; 65% humidity), the plants were sprayed with an aqueous spray solution derived from the formulation of the technical active ingredient in acetone/water (50:50) solution containing 0.5% Tween 20 (polyoxyethelyene sorbitan monolaurate, CAS RN 9005-64-5). The test plants were then grown in a glasshouse under controlled conditions (at 24/16° C., day/night; 14 hours light; 65% humidity) and watered twice daily. After 13 days, the test was evaluated (5=total damage to plant; 0=no damage to plant).

| SMILES | Control of weed species after pre-emergence application, SETFA |
| --- | --- |
| Cc1nc(-c2cncc(F)c2)ncc1NC(=O)OC(C)(C)C [Compound E1, tert-butyl N-[2-(5-fluoro-3-pyridyl)-4-methyl-pyrimidin-5-yl]carbamate] | 4 |

Same assay, conditions: Test 1b, rate 1000 g/ha, evaluated after 13 days, score 0-5 (5=total damage, 0=no damage)

| SMILES | Pre-emergence herbicidal activity, SETFA |
| --- | --- |
| CC(C)OC(=O)Nc1cnc(-c2cncc(F)c2)nc1C(F)(F)F [Compound E14, isopropyl N-[2-(5-fluoro-3-pyridyl)-4-(trifluoromethyl)pyrimidin-5-yl]carbamate] | 5 |

What follows are compounds tested on Abutilon theophrasti (ABUTH) (assay: B2 post-emergence herbicidal activity). Settings: Test 2a, rate 1000 g/ha, evaluated after 13 days, score 0-5 (5=total damage, 0=no damage).
Assay type: in vivo
Description: (§2) Seeds of a variety of test species were sown in standard soil in pots: Triticum aestivium (TRZAW), Avena fatua (AVEFA), Alopecurus myosuroides (ALOMY), Echinochloa crus-galli (ECHCG), Lolium perenne (LOLPE), Zea mays (ZEAMX), Abutilon theophrasti (ABUTH), Amaranthus retroflexus (AMARE) and Setaria faberi (SETFA). After 8 days cultivation (post-emergence) under controlled conditions in a glasshouse (at 24/16° C., day/night; 14 hours light; 65% humidity), the plants were sprayed with an aqueous spray solution derived from the formulation of the technical active ingredient in acetone/water (50:50) solution containing 0.5% Tween 20 (polyoxyethelyene sorbitan monolaurate, CAS RN 9005-64-5). The test plants were then grown in a glasshouse under controlled conditions (at 24/16° C., day/night; 14 hours light; 65% humidity) and watered twice daily. After 13 days, the test was evaluated (5=total damage to plant; 0=no damage to plant).

| SMILES | Control of weed species after post-emergence application, ABUTH |
| --- | --- |
| Cc1nc(-c2cncc(F)c2)ncc1NC(=O)OC(C)(C)C [Compound E1, tert-butyl N-[2-(5-fluoro-3-pyridyl)-4-methyl-pyrimidin-5-yl]carbamate] | 1 |

What follows are compounds tested on Alopecurus myosuroides (ALOMY) (assay: B1 pre-emergence herbicidal activity). Settings: Test 1b, rate 1000 g/ha, evaluated after 13 days, score 0-5 (5=total damage, 0=no damage).
Assay type: in vivo
Set-up: key: 5=total damage to plant; 0=no damage to plant
Description: as §1

| SMILES | Pre-emergence herbicidal activity, ALOMY |
| --- | --- |
| CC(C)OC(=O)Nc1cnc(-c2cncc(F)c2)nc1C(F)(F)F [Compound E14, isopropyl N-[2-(5-fluoro-3-pyridyl)-4-(trifluoromethyl)pyrimidin-5-yl]carbamate] | 0 |

The compounds below were run on Abutilon theophrasti (ABUTH) (assay: B1 pre-emergence herbicidal activity). Settings: Test 1a, rate 1000 g/ha, evaluated after 13 days, score 0-5 (5=total damage, 0=no damage).
Assay type: in vivo
Set-up: key: 5=total damage to plant; 0=no damage to plant
Description: as §1

| SMILES | Control of weed species after pre-emergence application, ABUTH |
| --- | --- |
| Cc1nc(-c2cncc(F)c2)ncc1NC(=O)OC(C)(C)C [Compound E1, tert-butyl N-[2-(5-fluoro-3-pyridyl)-4-methyl-pyrimidin-5-yl]carbamate] | 0 |

These compounds were tested on Amaranthus retroflexus (AMARE) (assay: B1 pre-emergence herbicidal activity). Settings: Test 1a, rate 1000 g/ha, evaluated after 13 days, score 0-5 (5=total damage, 0=no damage).
Assay type: in vivo
Set-up: key: 5=total damage to plant; 0=no damage to plant
Description: as §1

| SMILES | Control of weed species after pre-emergence application, AMARE |
| --- | --- |
| Cc1nc(-c2cncc(F)c2)ncc1NC(=O)OC(C)(C)C [Compound E1, tert-butyl N-[2-(5-fluoro-3-pyridyl)-4-methyl-pyrimidin-5-yl]carbamate] | 0 |

These compounds were tested on Avena fatua (AVEFA) (assay: B1 pre-emergence herbicidal activity). Settings: Test 1b, rate 1000 g/ha, evaluated after 13 days, score 0-5 (5=total damage, 0=no damage).
Assay type: in vivo
Set-up: key: 5=total damage to plant; 0=no damage to plant
Description: as §1

| SMILES | Pre-emergence herbicidal activity, AVEFA |
| --- | --- |
| CC(C)OC(=O)Nc1cnc(-c2cncc(F)c2)nc1C(F)(F)F [Compound E14, isopropyl N-[2-(5-fluoro-3-pyridyl)-4-(trifluoromethyl)pyrimidin-5-yl]carbamate] | 1 |

The compounds below were run on Lolium perenne (LOLPE) (assay: B1 pre-emergence herbicidal activity). Settings: Test 1a, rate 1000 g/ha, evaluated after 13 days, score 0-5 (5=total damage, 0=no damage).
Assay type: in vivo
Set-up: key: 5=total damage to plant; 0=no damage to plant
Description: as §1

| SMILES | Control of weed species after pre-emergence application, LOLPE |
| --- | --- |
| Cc1nc(-c2cncc(F)c2)ncc1NC(=O)OC(C)(C)C [Compound E1, tert-butyl N-[2-(5-fluoro-3-pyridyl)-4-methyl-pyrimidin-5-yl]carbamate] | 1 |

Same assay, conditions: Test 1b, rate 1000 g/ha, evaluated after 13 days, score 0-5 (5=total damage, 0=no damage)

| SMILES | Pre-emergence herbicidal activity, LOLPE |
| --- | --- |
| CC(C)OC(=O)Nc1cnc(-c2cncc(F)c2)nc1C(F)(F)F [Compound E14, isopropyl N-[2-(5-fluoro-3-pyridyl)-4-(trifluoromethyl)pyrimidin-5-yl]carbamate] | 0 |

The compounds below were run on Triticum aestivium (TRZAW) (assay: B1 pre-emergence herbicidal activity). Settings: Test 1b, rate 1000 g/ha, evaluated after 13 days, score 0-5 (5=total damage, 0=no damage).
Assay type: in vivo
Set-up: key: 5=total damage to plant; 0=no damage to plant
Description: as §1

| SMILES | Pre-emergence herbicidal activity, TRAZW |
| --- | --- |
| CC(C)OC(=O)Nc1cnc(-c2cncc(F)c2)nc1C(F)(F)F [Compound E14, isopropyl N-[2-(5-fluoro-3-pyridyl)-4-(trifluoromethyl)pyrimidin-5-yl]carbamate] | 0 |

What follows are compounds tested on Zea mays (ZEAMX) (assay: B1 pre-emergence herbicidal activity). Settings: Test 1a, rate 1000 g/ha, evaluated after 13 days, score 0-5 (5=total damage, 0=no damage).
Assay type: in vivo
Set-up: key: 5=total damage to plant; 0=no damage to plant
Description: as §1

| SMILES | Control of weed species after pre-emergence application, ZEAMX |
| --- | --- |
| Cc1nc(-c2cncc(F)c2)ncc1NC(=O)OC(C)(C)C [Compound E1, tert-butyl N-[2-(5-fluoro-3-pyridyl)-4-methyl-pyrimidin-5-yl]carbamate] | 5 |

Each compound was assayed on Alopecurus myosuroides (ALOMY) (assay: B2 post-emergence herbicidal activity). Settings: Test 2b, rate 1000 g/ha, evaluated after 13 days, score 0-5 (5=total damage, 0=no damage).
Assay type: in vivo
Set-up: key: 5=total damage to plant; 0=no damage to plant
Description: as §2

| SMILES | Control of weed species after post-emergence application, ALOMY |
| --- | --- |
| CC(C)OC(=O)Nc1cnc(-c2cncc(F)c2)nc1C(F)(F)F [Compound E14, isopropyl N-[2-(5-fluoro-3-pyridyl)-4-(trifluoromethyl)pyrimidin-5-yl]carbamate] | 0 |

The compounds below were run on Setaria faberi (SETFA) (assay: B2 post-emergence herbicidal activity). Settings: Test 2a, rate 1000 g/ha, evaluated after 13 days, score 0-5 (5=total damage, 0=no damage).
Assay type: in vivo
Set-up: key: 5=total damage to plant; 0=no damage to plant
Description: as §2

| SMILES | Control of weed species after post-emergence application, SETFA |
| --- | --- |
| Cc1nc(-c2cncc(F)c2)ncc1NC(=O)OC(C)(C)C [Compound E1, tert-butyl N-[2-(5-fluoro-3-pyridyl)-4-methyl-pyrimidin-5-yl]carbamate] | 5 |

Same assay, conditions: Test 2b, rate 1000 g/ha, evaluated after 13 days, score 0-5 (5=total damage, 0=no damage)

| SMILES | Control of weed species after post-emergence application, SETFA |
| --- | --- |
| CC(C)OC(=O)Nc1cnc(-c2cncc(F)c2)nc1C(F)(F)F [Compound E14, isopropyl N-[2-(5-fluoro-3-pyridyl)-4-(trifluoromethyl)pyrimidin-5-yl]carbamate] | 5 |

What follows are compounds tested on Echinochloa crus-galli (ECHCG) (assay: B2 post-emergence herbicidal activity). Settings: Test 2a, rate 1000 g/ha, evaluated after 13 days, score 0-5 (5=total damage, 0=no damage).
Assay type: in vivo
Set-up: key: 5=total damage to plant; 0=no damage to plant
Description: as §2

| SMILES | Control of weed species after post-emergence application, ECHCG |
| --- | --- |
| Cc1nc(-c2cncc(F)c2)ncc1NC(=O)OC(C)(C)C [Compound E1, tert-butyl N-[2-(5-fluoro-3-pyridyl)-4-methyl-pyrimidin-5-yl]carbamate] | 4 |

Same assay, conditions: Test 2b, rate 1000 g/ha, evaluated after 13 days, score 0-5 (5=total damage, 0=no damage)

| SMILES | Control of weed species after post-emergence application, ECHCG |
| --- | --- |
| CC(C)OC(=O)Nc1cnc(-c2cncc(F)c2)nc1C(F)(F)F [Compound E14, isopropyl N-[2-(5-fluoro-3-pyridyl)-4-(trifluoromethyl)pyrimidin-5-yl]carbamate] | 4 |

Each compound was assayed on Amaranthus retroflexus (AMARE) (assay: B2 post-emergence herbicidal activity). Settings: Test 2a, rate 1000 g/ha, evaluated after 13 days, score 0-5 (5=total damage, 0=no damage).
Assay type: in vivo
Set-up: key: 5=total damage to plant; 0=no damage to plant
Description: as §2

| SMILES | Control of weed species after post-emergence application, AMARE |
| --- | --- |
| Cc1nc(-c2cncc(F)c2)ncc1NC(=O)OC(C)(C)C [Compound E1, tert-butyl N-[2-(5-fluoro-3-pyridyl)-4-methyl-pyrimidin-5-yl]carbamate] | 2 |

What follows are compounds tested on Avena fatua (AVEFA) (assay: B2 post-emergence herbicidal activity). Settings: Test 2b, rate 1000 g/ha, evaluated after 13 days, score 0-5 (5=total damage, 0=no damage).
Assay type: in vivo
Set-up: key: 5=total damage to plant; 0=no damage to plant
Description: as §2

| SMILES | Control of weed species after post-emergence application, AVEFA |
| --- | --- |
| CC(C)OC(=O)Nc1cnc(-c2cncc(F)c2)nc1C(F)(F)F [Compound E14, isopropyl N-[2-(5-fluoro-3-pyridyl)-4-(trifluoromethyl)pyrimidin-5-yl]carbamate] | 3 |

These compounds were tested on Lolium perenne (LOLPE) (assay: B2 post-emergence herbicidal activity). Settings: Test 2a, rate 1000 g/ha, evaluated after 13 days, score 0-5 (5=total damage, 0=no damage).
Assay type: in vivo
Set-up: key: 5=total damage to plant; 0=no damage to plant
Description: as §2

| SMILES | Control of weed species after post-emergence application, LOLPE |
| --- | --- |
| Cc1nc(-c2cncc(F)c2)ncc1NC(=O)OC(C)(C)C [Compound E1, tert-butyl N-[2-(5-fluoro-3-pyridyl)-4-methyl-pyrimidin-5-yl]carbamate] | 2 |

Same assay, conditions: Test 2b, rate 1000 g/ha, evaluated after 13 days, score 0-5 (5=total damage, 0=no damage)

| SMILES | Control of weed species after post-emergence application, LOLPE |
| --- | --- |
| CC(C)OC(=O)Nc1cnc(-c2cncc(F)c2)nc1C(F)(F)F [Compound E14, isopropyl N-[2-(5-fluoro-3-pyridyl)-4-(trifluoromethyl)pyrimidin-5-yl]carbamate] | 3 |

These compounds were tested on Triticum aestivium (TRZAW) (assay: B2 post-emergence herbicidal activity). Settings: Test 2b, rate 1000 g/ha, evaluated after 13 days, score 0-5 (5=total damage, 0=no damage).
Assay type: in vivo
Set-up: key: 5=total damage to plant; 0=no damage to plant
Description: as §2

| SMILES | Control of weed species after post-emergence application, TRAZW |
| --- | --- |
| CC(C)OC(=O)Nc1cnc(-c2cncc(F)c2)nc1C(F)(F)F [Compound E14, isopropyl N-[2-(5-fluoro-3-pyridyl)-4-(trifluoromethyl)pyrimidin-5-yl]carbamate] | 1 |

These compounds were tested on Zea mays (ZEAMX) (assay: B2 post-emergence herbicidal activity). Settings: Test 2a, rate 1000 g/ha, evaluated after 13 days, score 0-5 (5=total damage, 0=no damage).
Assay type: in vivo
Set-up: key: 5=total damage to plant; 0=no damage to plant
Description: as §2

| SMILES | Control of weed species after post-emergence application, ZEAMX |
| --- | --- |
| Cc1nc(-c2cncc(F)c2)ncc1NC(=O)OC(C)(C)C [Compound E1, tert-butyl N-[2-(5-fluoro-3-pyridyl)-4-methyl-pyrimidin-5-yl]carbamate] | 5 |

What follows are compounds tested on Echinochloa crus-galli (ECHCG) (assay: B1 pre-emergence herbicidal activity). Settings: Test 1a, rate 1000 g/ha, evaluated after 13 days, score 0-5 (5=total damage, 0=no damage).
Assay type: in vivo
Description: as §1

| SMILES | Control of weed species after pre-emergence application, ECHCG |
| --- | --- |
| Cc1nc(-c2cncc(F)c2)ncc1NC(=O)OC(C)(C)C [Compound E1, tert-butyl N-[2-(5-fluoro-3-pyridyl)-4-methyl-pyrimidin-5-yl]carbamate] | 4 |

Same assay, conditions: Test 1b, rate 1000 g/ha, evaluated after 13 days, score 0-5 (5=total damage, 0=no damage)

| SMILES | Pre-emergence herbicidal activity, ECHCG |
| --- | --- |
| CC(C)OC(=O)Nc1cnc(-c2cncc(F)c2)nc1C(F)(F)F [Compound E14, isopropyl N-[2-(5-fluoro-3-pyridyl)-4-(trifluoromethyl)pyrimidin-5-yl]carbamate] | 3 |
